The text below walks through data of patent US7135476B2, “Spiro tetrahydroquinazolines and dihydrocyclopentapyrimidines as CRF antagonists” (Roche Palo Alto LLC, priority 2003, dated 2006).

The term Ki denotes the equilibrium dissociation constant of an inhibitor or competing ligand from its target. Low values mean a stronger hold on the target, high ones a looser hold on the target.

This assay deals with T1, CRF1 Receptor (Homo sapiens, UniProt P34998).
T1 construct: endogenous in cells; host or cells: IMR-32 human neuroblastoma cells (membrane preparation)
T1 sequence (P34998 24-415): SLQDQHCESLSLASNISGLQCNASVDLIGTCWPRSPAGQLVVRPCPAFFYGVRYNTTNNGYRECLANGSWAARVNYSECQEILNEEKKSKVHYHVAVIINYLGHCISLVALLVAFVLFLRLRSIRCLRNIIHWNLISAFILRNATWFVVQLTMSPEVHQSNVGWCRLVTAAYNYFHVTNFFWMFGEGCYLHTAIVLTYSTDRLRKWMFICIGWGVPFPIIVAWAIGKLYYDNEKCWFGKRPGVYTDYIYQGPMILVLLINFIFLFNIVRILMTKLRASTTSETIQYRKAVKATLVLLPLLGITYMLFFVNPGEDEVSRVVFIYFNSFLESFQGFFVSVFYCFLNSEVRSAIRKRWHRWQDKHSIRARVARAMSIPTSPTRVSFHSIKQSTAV
Briefly: CRF1 Receptor Binding Assay. As to conditions: competition with [125I]Tyr0-ovine CRF, human IMR-32 neuroblastoma cell membranes; pKi derived from pIC50. Here is the method: CRF1 Receptor Binding Assay
Human IMR-32 neuroblastoma cells are grown to 80% confluence in MEM medium containing 10% heat-inactivated FBS, 1 mM Sodium Pyruvate, and 0.1 mM nonessential amino acids. Cell membranes are prepared according the method of Dieterich and DeSouza (1996). The cells (˜5E+9) are resuspended in 10 volumes of wash buffer (5 mM Tris HCl, 10 mM MgCl2, 2 mM EGTA, pH 7.4 at RT), homogenized with a Polytron, and then centrifuged at 45,000 G for 20 min at 4° C. The membrane pellets are washed twice with wash buffer (45,000 G for 20 min at 4° C.) and then resuspended (50 mM Tris HCl, 10 mM MgCl2, 2 mM EGTA, pH 7.4 at RT). Protein concentration is determined using Pierce reagents and BSA as standard. […]
The competition binding assay is performed in a final volume of 250 μl, which contains assay buffer (50 mM Tris-HCl, 10 mM MgCl2, 2 mM EGTA, 0.2% BSA, 0.1 mM bacitracin and 100 kIU/mL aprotinin pH 7.2 at R.T.), 0.05 nM [^125I]Tyr^0-ovine CRF (Du Pont New England Nuclear), 50 μg of membrane protein, and test compound at various concentrations. Non-specific binding is determined with 1 uM hCRF. […] Unbound radioactivity is removed by four rapid washes (0.8 ml/well) with wash buffer. The radioactivity is quantified using a Packard TopCount. Data are analyzed using non-linear iterative curve fitting to obtain IC50 and Hill slope values. […]

In turn, `CCCN(CC1CC1)c1nc(C)nc2c1CCCC21CCc2ccccc21` (stereo not shown) [Compound 1, (2,3,5′,6′,-Tetrahydro)-2′-methyl-4′-(N-propyl-N-cyclo-propylmethyl-amino)spiro[(1H)indene-1,8′-(7H)quina-zoline]] showed a Ki of 123 nM.
